Measured values published in the NIST ThermoML archive (doi:10.1016/j.jct.2019.05.023).
Numbers after ± are expanded uncertainties.

Legend:
[1] = 101.3 kPa, Liquid; for speed of sound: Frequency=3 MHz, Single path-length method; for mass density: Vibrating tube method
[2] = xn = mol fraction of the nth substance listed; settings: 101.3 kPa, Liquid, x1 = 1; for speed of sound: Frequency=3 MHz, Single path-length method; for mass density: Vibrating tube method

Row | speed of sound ([1]; 298.15 K) | mass density ([1]; 298.15 K) | speed of sound ([1]; 303.15 K) | mass density ([1]; 303.15 K) | speed of sound ([1]; 308.15 K) | mass density ([1]; 308.15 K) | speed of sound ([1]; 313.15 K) | mass density ([1]; 313.15 K) | speed of sound ([1]; 318.15 K) | mass density ([1]; 318.15 K) | speed of sound ([2]; 298.15 K) | mass density ([2]; 298.15 K) | speed of sound ([2]; 303.15 K) | mass density ([2]; 303.15 K) | speed of sound ([2]; 308.15 K) | mass density ([2]; 308.15 K) | speed of sound ([2]; 313.15 K) | mass density ([2]; 313.15 K) | speed of sound ([2]; 318.15 K) | mass density ([2]; 318.15 K) | SMILES
1 | 1436 ± 10 m/s | 1383 ± 2 kg/m3 | 1425 ± 10 m/s | 1379 ± 2 kg/m3 | 1413 ± 10 m/s | 1374 ± 2 kg/m3 | 1402 ± 10 m/s | 1370 ± 2 kg/m3 | 1391 ± 10 m/s | 1366 ± 2 kg/m3 | – | – | – | – | – | – | – | – | – | – | CCn1cc[n+](C)c1.O=S(=O)([O-])C(F)(F)F [1-ethyl-3-methylimidazolium trifluoromethanesulfonate]
2 | 1301 ± 10 m/s | 908 ± 2 kg/m3 | 1283 ± 10 m/s | 903 ± 2 kg/m3 | 1266 ± 10 m/s | 899 ± 2 kg/m3 | 1248 ± 10 m/s | 895 ± 2 kg/m3 | 1231 ± 10 m/s | 890 ± 2 kg/m3 | – | – | – | – | – | – | – | – | – | – | CCCOCCO [2-propoxyethanol]
3 | – | – | – | – | – | – | – | – | – | – | 1436 ± 10 m/s | 1383 ± 2 kg/m3 | 1425 ± 10 m/s | 1379 ± 2 kg/m3 | 1413 ± 10 m/s | 1374 ± 2 kg/m3 | 1402 ± 10 m/s | 1370 ± 2 kg/m3 | 1391 ± 10 m/s | 1366 ± 2 kg/m3 | CCn1cc[n+](C)c1.O=S(=O)([O-])C(F)(F)F [1-ethyl-3-methylimidazolium trifluoromethanesulfonate] + CCOCCO
4 | 1304 ± 10 m/s | 926 ± 2 kg/m3 | 1287 ± 10 m/s | 921 ± 2 kg/m3 | 1270 ± 10 m/s | 917 ± 2 kg/m3 | 1252 ± 10 m/s | 912 ± 2 kg/m3 | 1234 ± 10 m/s | 907 ± 2 kg/m3 | – | – | – | – | – | – | – | – | – | – | CCOCCO [2-ethoxyethan-1-ol]
5 | – | – | – | – | – | – | – | – | – | – | 1436 ± 10 m/s | 1383 ± 2 kg/m3 | 1425 ± 10 m/s | 1379 ± 2 kg/m3 | 1413 ± 10 m/s | 1374 ± 2 kg/m3 | 1402 ± 10 m/s | 1370 ± 2 kg/m3 | 1391 ± 10 m/s | 1366 ± 2 kg/m3 | CCn1cc[n+](C)c1.O=S(=O)([O-])C(F)(F)F [1-ethyl-3-methylimidazolium trifluoromethanesulfonate] + CCCOCCO
